pIC50: −log10 of the molar value. In brackets after ≈: the same amount, converted by molar mass. Like-named read-outs stand apart in the source and are kept apart here.

In data set [1] the test system is amastigotes of Leishmania amazonensis. Kind of data set: Amastigotes of Leishmania amazonensis in infected macrophages (leishmanicidal activity). Type of data set: cell-based. The following applies: for L. amazonensis IC100: 100% inhibitory concentration, intracellular amastigotes in BALB/c macrophages, 30 hours after addition.
Method: The strain of Leishmania amazonensis is maintained by successive passages in “nude” mice (nu/nu). The amastigotes are isolated from the lesions developed on the footpads, and purified according to the method described by Antoine et al. (Parasitology, 1989, 99: 1).
The leishmanicidal activity of the quinolines is determined 30 hours after addition of the solutions of substituted quinolines. It is based on a more or less large, or even complete, decrease, firstly, in the size of the parasitophorous vacuoles and, secondly, in the number of live intracellular amastigotes.
Data set [2] concerns macrophages. Kind of data set: Cytotoxicity on macrophages. The following applies: macrophages from BALB/c mice. The class given is cell-based, BALB/c mice. The procedure:
The macrophages, which will be used as host cells for the leishmania, are obtained after multiplication and differentiation of medullary precursors from BALB/c mice. This culture is prepared in the presence of supernatant from a conditioned line of fibroblasts L-929, and source of “Macrophage Colony Stimulating Factor”. After culturing for 5 days on a hydrophobic support, the adherent macrophages are recovered and then distributed in flat-bottomed 96-well plates for cell culture, in a proportion of 4×10^4 macrophages per well. The macrophages are then infected with purified amastigotes (4 parasites per macrophage) and incubated at 34° C. for 24 hours to allow development of parasitophorous vacuoles and multiplication of parasites. Under these conditions, more than 95% of the macrophages are infected.
The solutions of the substituted quinolines to be tested are prepared in DMSO before being added, at various concentrations, to the infected macrophage cultures.
The results obtained with the substituted quinolines, assigned Nos. 1, 2, 4, 6 to 11, 13 to 20, 23 to 34, 37 and 38 in Table I, are given in Table II below as regards their activity on the amastigotes of Leishmania amazonensis, of Leishmania donovani and of Leishmania infantum, and also their cytotoxicity with respect to the macrophages.

For data set [3], the system named is Leishmania infantum (MHOM/FR/91/LEM2259V). Nature of the data set: Balb/c mice infected with visceral leishmaniasis (Leishmania infantum). Type of data set: in vivo. The following applies: 10 days, quinolines oral 25 mg/kg/day, Glucantime subcutaneous 100 mg/kg/day; for Number of parasites in the liver per gram / Number of parasites in the spleen per gram: n=8; for % reduction in the number of parasites in the liver / % reduction in the number of parasites in the spleen: versus without treatment. How it is done:
b) Tests Carried on Laboratory Animals Infected with Visceral Leishmaniasis (Leishmania infantum): 1/Laboratory Animals and Parasites
The Balb/c mice were infected with Leishmania infantum parasites at the promastigote stage (reference: MHOM/FR/91/LEM2259V), a strain isolated from a patient carrying AIDS. This strain is maintained in Schneider's drosophila culture medium (Gibco, USA) supplemented with 20% of fetal calf serum. The infectious promastigotes are cultured for 7 days and then counted. Each mouse is then infected intravenously with 0.2 ml of culture medium containing 10^7 promastigotes.
Counting of amastigotes forms in the liver and spleen.
After the treatments have been stopped and the animals sacrificed, the viscera, liver and spleen are weighed and collected in a Petri dish. Each organ is mounted several times on a degreased glass slide which, fixed and stained by the May-Grünwald-Giemsa technique, makes it possible to determine the number of amastigote forms per 500 nucleated cells.
The results are expressed in Table VI.

Data set [4] concerns amastigotes of Trypanosoma cruzi (Tulahuen strain). Kind of data set: Amastigotes of Trypanosoma cruzi in peritoneal macrophages. The class given is cell-based. The following applies: for pIC50: read-out: T. cruzi (amastigotes) IC50.
Method: c) Tests on Amastigotes of Trypanosoma cruzi
Peritoneal macrophages from Balb/c mice are collected, washed in Dulbecco PBS and then distributed in 96-well plates in a proportion of 3×10^4 cells per 100 μl and per well, in RPMI-1640 medium supplemented with 10% FCS and antibiotics.
After 24 hours at 37° C., 10^5 trypomastigotes are added with serial 2-fold dilutions of the various substituted quinolines. The cultures are then incubated at 37° C. for 4 days in a humid atmosphere (5% CO2-95% air). After fixing, and then staining with Giemsa, the antiparasitic activity is assessed by counting the extracellular trypomastigotes and the intracellular amastigotes.
Data set [5] relates to amastigotes of Leishmania donovani (MHOM/ET/67/L82). Kind of data set: microbe, parasite or virus in culture. The class given is cell-based. The note with it: Leishmania donovani, Peritoneal macrophage, in Mus musculus, 48 h, read-out: L. donovani IC50. The source says: (§1) b) Tests on Amastigotes of Leishmania donovani and Leishmania infantum
(§2) The Leishmania donovani and Leishmania infantum strains are maintained by successive passages in golden hamsters. The amastigotes are isolated from the spleens of the infected hamsters and brought into contact with the purified macrophages.
(§3) Twenty-four hours after intraperitoneal injection of Balb/c mice with a 2% starch solution, the peritoneal macrophages of these mice are collected, washed in Dulbecco PBS and then distributed in Lab-tek® culture chambers, in a proportion of 4×10^4 cells per 100 μl per well in RPMI-1640 medium supplemented with 10% of FCS and antibiotics. After 24 hours at 37° C. in a humid atmosphere (5% CO2), the macrophages are brought into contact with purified amastigotes (3 parasites per macrophage) in a final volume of 200 μl for 4 hours. The medium is then removed in order to eliminate the extracellular parasites, and replaced with 100 μl of fresh medium.
(§4) Twenty-four hours after the beginning of infection, the solutions of substituted quinolines prepared as described in paragraph a) above are added and the leishmanicidal activity is determined after 48 hours by counting the number of parasites still alive in the fixed and Giemsa-stained cells.

The test system of data set [6] is amastigotes of Leishmania infantum (IPZ229/1/89). Nature of the data set: microbe, parasite or virus in culture. Type of data set: cell-based. The following applies: Leishmania infantum, Peritoneal macrophage, in Mus musculus, 48 h, read-out: L. infantum (IPZ229/1/89) IC50.
Excerpt: as §1, §2, §3, §4

Data set [7] concerns circulating forms of Trypanosoma brucei (S427 strain). Nature of the data set: microbe, parasite or virus in culture. Type of data set: cell-based. The following applies: for pIC50: read-out: T. brucei IC50.
Method: d) Tests on the Circulating Forms of Trypanosoma brucei
The circulating forms of Trypanosoma brucei are cultured in MEM medium (minimum essential medium; GIBCO-BRL, No. 072-1100) to which Earle's salts have been added and supplemented with 1 mg/ml of glucose, 2.2 mg/ml of NaHCO3, 10 mM of Hepes, 2 mM of sodium pyruvate, 0.2 mM of 2-mercaptoethanol, 0.1 mM of hypoxanthine and 15% of inactivated horse serum.
The cultures are maintained at 37° C. in 24-well plates in a humid atmosphere (5% CO2-95% air) and the passages are carried out every 2 or 3 days at a density of 10^3 to 10^5 trypomastigotes per ml. The activity of the substituted quinolines is tested in triplicate in 96-well plates in which 10^3 parasites originating from an exponential growth phase are distributed per well, in the presence of the various solutions of substituted quinolines in a final volume of 200 μl. After culturing for 48 hours, the trypanocidal activity is assessed by counting, with a Neubauer cell, the number of live parasites per well.
For data set [8], the system named is amastigotes of Leishmania infantum (MHOM/MA(BE)67). Kind of data set: Amastigotes of Leishmania infantum (MHOM/MA(BE)67) in peritoneal macrophages. Type of data set: cell-based. The following applies: for pIC50: Leishmania infantum, Peritoneal macrophage, in Mus musculus, 48 h, read-out: L. infantum (MHOM/MA (BE) 67) IC50.
The subject of data set [9] is Leishmania amazonensis (IFLA/BR/67/PH8). The note with it: 15 days, quinolines oral 25 mg/kg/day, Glucantime subcutaneous 100 mg/kg (28 mg Sbv/kg); for Mean of the number of parasites in the lesion per gram / Weight of lesions (mean ± standard deviation): n=8; for % reduction in the number of parasites in the lesion: versus untreated controls.
Excerpt: a) Tests Carried Out on Laboratory Animals Infected with Cutaneous Leishmaniasis (Leishmania amazonensis):
The experimental animals are male or female approximately 6- to 8-week-old Balb/c mice weighing 18-24 g, subsequently reared for reproduction in the animal house of the Instituto de Investigaciones en Ciencias de la Salud (IICS), Asuncion, Paraguay. Golden hamsters (Mesocricetus auratus) are used to maintain these strains and as reservoirs for L. amazonensis parasites.
The Balb/c mice are infected with Leishmania amazonensis parasites, at the amastigote stage of the reference strain IFLA/BR/67/PH8, subcutaneously in the ventral pad of the right rear foot, the left foot remaining as a control. The amount of amastigotes inoculated is 2×10^6 amastigotes in 50 μl of phosphate buffer saline (PBS) for L. amazonensis.
The treatments begin once the infection is well established, mainly in general 5 to 6 weeks after inoculation of the L. amazonensis amastigotes. The reference medicinal product chosen is Glucantime® or meglumine antimoniate from Aventis (France).
The untreated control mice are given 50 μl of a solution of Tween 80 with PBS.
Measurement of the lesion: the diameters of the lesions on the infected foot and on the control foot are measured using a micrometer with 1/10 mm graduations, once a week for the duration of the experiment. The first measurements begin 48 hours after inoculation of the parasites. Calculating the difference in the two measurements gives the thickness of the lesion.
The 5 ml of puree obtained are centrifuged twice. The layer containing the amastigotes is subjected to counting of the number of parasites using a Neubauer cell. Five counts are performed on each amastigote layer. The number of amastigote forms is determined using the Stauber formula which takes into account the weight of the lesion: A/N×W×coefficient of the Neubauer cell • A=number of amastigotes, N=number of nuclei W=weight of the lesion
The results are expressed by the calculation of the arithmetic mean of the diameters of the lesions measured once a week and, at the end of the protocol, after sacrifice of the mice, of the weights of the lesions and of the number of amastigotes. A Student's test (t-test) is used for the statistical analysis of all the data. The comparison is made between “control” groups with a “treatment” group per pair. A value of P<0.05 is considered to be statistically significant.
Setting [10] is: Trypanosoma cruzi, TULAHUEN, Peritoneal macrophage, in Mus musculus, 96 h.
Where [11] appears, read: Balb/c peritoneal macrophages, 4 days.
Setting [12] is: circulating forms, culturing for 48 hours.

Consider `C[Si](C)(C)C#Cc1ccc2ccccc2n1` [Example 1, 2-(2-quinolyl)trimethylsilylacetylene], for which, in data set [1], the “L. amazonensis IC100” value is 0.7812 µg/mL. In addition, in [2], the Cytotoxicity on macrophages is 6.25 µg/mL.
For `OC/C=C/c1ccc2ccccc2n1` [Example 4, E-3-(2-quinolyl)prop-2-en-1-ol], the “L. amazonensis IC100” value in data set [1] is 25 µg/mL. In addition, the Cytotoxicity on macrophages in [2] is 25 µg/mL.
Take `C#Cc1ccc2ccccc2n1` [Quinoline 1, 1-(2-quinolyl)acetylene]: in [3], the “Number of parasites in the liver per gram” value is given as 1.8 × 10^7 c per gram, the “Number of parasites in the spleen per gram” value is given as 2.2 × 10^6 b per gram, the “% reduction in the number of parasites in the liver” value was −60.0% and the “% reduction in the number of parasites in the spleen” value is recorded as −47.6%.
Turning to `C=Cc1ccc2ccccc2n1` [Quinoline 2, (2-quinolyl)ethylene], the “L. amazonensis IC100” value in data set [1] was 3.12 µg/mL. The pIC50 was 4.92 in data set [4] (setting [10]); 4.89 in data set [7] (Trypanosoma brucei, 48 h); less than 4.49 in [8]. For the same compound, the IC50 is 1.2 to 2.8 µg/mL (≈ 7.73 to 18 µM) in data set [5] and 1.3 µg/mL (≈ 8.38 µM) in data set [6]. The compound also had a Cytotoxicity on macrophages in data set [2] of 6.25 µg/mL.
`Cc1ccc2nc(C=O)ccc2c1` [Quinoline 5]: the pIC50 in data set [4] (setting [11]) was less than 4.49.
Regarding `CC/C=C/c1ccc2ccccc2n1` [Quinoline 6, E-1-(2-quinolyl)butene], in data set [9], the “Mean of the number of parasites in the lesion per gram” value was 6.9 × 10^6 per gram, the “Weight of lesions (mean ± standard deviation)” value turned out to be 0.101 ± 0.100 g and the “% reduction in the number of parasites in the lesion” value is −73%. Moreover, the “L. amazonensis IC100” value in [1] was found to be 6.25 µg/mL. The pIC50 in data set [4] (setting [11]) is less than 4.49. Also, in [7] (setting [12]), the pIC50 was 4.77. This compound displayed a Cytotoxicity on macrophages in [2] of 25 µg/mL.
Consider `OC/C=C/c1ccc2ccccc2n1` [Quinoline 10], for which, in data set [1] (listed as 10), the “L. amazonensis IC100” value amounted to 1.56 µg/mL. In addition, the results for the pIC50 in [4] (setting [11]) and in [7] (setting [12]) were 5.40 and less than 4.49, respectively. This compound yielded a Cytotoxicity on macrophages in data set [2] (listed as 10) of 6.25 µg/mL.
Consider `C/C=C/c1ccc2cccc(O)c2n1` [Quinoline 11], for which the “L. amazonensis IC100” value in [1] turned out to be 50 µg/mL. Also, the pIC50 in data set [4] (setting [11]) was 4.72; in [7] (setting [12]), less than 4.49. In data set [2], this compound had a Cytotoxicity on macrophages of 50 µg/mL.
Consider `CC(=O)Cc1ccc2ccccc2n1` [Quinoline 13], for which the “L. amazonensis IC100” value in data set [1] stood at 25 µg/mL. Further, the pIC50 is less than 4.49 in data set [4] (setting [11]) and 5.00 in [7] (setting [12]). The Cytotoxicity on macrophages in data set [2] came to 25 µg/mL.
Turning to `CC(O)Cc1ccc2ccccc2n1` (stereo not shown) [Quinoline 15], the figures for the pIC50 in data set [4] (setting [11]) and in [7] (setting [12]) were less than 4.49 and 4.80, respectively.
Turning to `CCC(O)c1ccc2ccccc2n1` (stereo not shown) [Quinoline 17], the values for the pIC50 in data set [4] (setting [11]) and in data set [7] (setting [12]) were less than 4.49 and 5.52, respectively.
With `O=C(O)/C=C/c1ccc2ccccc2n1` [Quinoline 19], the “L. amazonensis IC100” value in [1] was determined as 12.5 µg/mL. Moreover, in data set [2], the Cytotoxicity on macrophages is 12.5 µg/mL.
Consider `CC(O)Cc1ccc2cccc(O)c2n1` (stereo not shown) [Quinoline 22], for which the pIC50 in data set [4] (setting [11]) and in [7] (setting [12]) was 4.80 throughout.
As to `Cl/C=C/C#Cc1ccc2ccccc2n1` [Quinoline 24], the “L. amazonensis IC100” value in data set [1] lay in the range of 10 to 25 µg/mL.
On to `CCCCC/C=C/c1ccc2ccccc2n1` [Quinoline 25], for which the “L. amazonensis IC100” value in data set [1] was found to be 12.5 µg/mL. In addition, the “activity on Leishmania amazonensis (in words)” value in data set [1] (comment on Table II) is recorded as “advantageous activity”. Also, the pIC50 is 4.96 in data set [4] (setting [11]) and 5.40 in data set [7] (setting [12]). In addition, the “activity on Trypanosoma cruzi (in words)” value in data set [4] (comment on Table III) was “advantageous activity”. Also, the “activity on Trypanosoma brucei (in words)” value in [7] (comment on Table III) is reported as “advantageous activity”. The “activity on the MHOM/MA(BE)67 strain of Leishmania infantum (in words)” value in data set [8] (comment on Table II) was “less active”. This compound also gave a Cytotoxicity on macrophages in data set [2] of 25 µg/mL.
Turning to `COC(=O)/C=C/c1ccc2cc(C)ccc2n1` [Quinoline 27], the “L. amazonensis IC100” value in data set [1] is 50 µg/mL. For the same compound, the pIC50 in data set [4] (setting [11]) is 4.60.
With `BrC#Cc1ccc2ccccc2n1` [Quinoline 28], the “L. amazonensis IC100” value in data set [1] turned out to be 12.5 µg/mL. The results for the pIC50 in data set [4] (setting [11]) and in [7] (setting [12]) were less than 4.49 and 5.30, respectively. In addition, the Cytotoxicity on macrophages in [2] was found to be 12.5 µg/mL.
For `Br/C=C/c1ccc2ccccc2n1` [Quinoline 29, E-1-bromo-2-(2-quinolyl)-ethene], the “L. amazonensis IC100” value in data set [1] is 0.7812 µg/mL. Moreover, the pIC50 in [4] (setting [10]) is more than 6.30; in [7] (Trypanosoma brucei, 48 h), 6.00; in [8], 5.70. The Cytotoxicity on macrophages in [2] was 3.12 µg/mL.
With `COC(=O)/C=C/C=C/c1ccc2ccccc2n1` [Quinoline 30], the “L. amazonensis IC100” value in [1] is 12.5 µg/mL. For the same compound, the pIC50 in [4] (setting [11]) is 4.59. The Cytotoxicity on macrophages in data set [2] came out at 25 µg/mL.
As for `FC(Br)=Cc1ccc2ccccc2n1` [Quinoline 31], the “L. amazonensis IC100” value in [1] came to 25 µg/mL. For the same compound, the Cytotoxicity on macrophages in data set [2] was 25 µg/mL.
With `CCCCCCCCC#Cc1ccc2ccccc2n1` [Quinoline 32], in data set [1], the “L. amazonensis IC100” value was found to be 12.5 µg/mL. The compound further gave a Cytotoxicity on macrophages in data set [2] of 12.5 µg/mL.
Consider `c1ccc2nc(CCc3ccc4c(c3)OCO4)ccc2c1` [Quinoline 34], for which, in data set [1], the “L. amazonensis IC100” value was 50 µg/mL. In addition, the pIC50 in [4] (setting [11]) was 4.82; in data set [7] (setting [12]) it was 4.89. Also, the Cytotoxicity on macrophages in data set [2] stood at 25 µg/mL.
Turning to `C(=C\c1ccc2ccccc2n1)/c1ccc2ccccc2n1` [Quinoline 35], the pIC50 is less than 4.49 in [4] (setting [11]) and 4.62 in data set [7] (setting [12]).
For `BrC(Br)=Cc1ccc2ccccc2n1` [Quinoline 36] the same measures were 4.68 and 5.40.
As for “meglumine antimoniate [Glucantime, reference compound]”, in [9], the “Mean of the number of parasites in the lesion per gram” value was 7.2 × 10^5 per gram, the “Weight of lesions (mean ± standard deviation)” value amounted to 0.012 ± 0.010 g and the “% reduction in the number of parasites in the lesion” value is listed as −97%. Besides, in [3], the “Number of parasites in the liver per gram” value is 1.6 × 10^7 a per gram, the “Number of parasites in the spleen per gram” value is given as 4.4 × 10^6 per gram, the “% reduction in the number of parasites in the liver” value is −65.3% and the “% reduction in the number of parasites in the spleen” value is “+6.0%”.

For the origin of these results see patent US7342026B2, “Substituted quinolines for the treatment of protozoa and retrovirus co-infections” (priority 2001, dated 2008).
